The text below walks through data of ChEMBL document CHEMBL1201862, “PubChem BioAssay data set” (2004).

Molecules are shown by their SMILES.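 All cell lines were grown in 96-well plates and treated with compound for 48 hours. GI50: concentration for 50% inhibition of growth.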 Activity calls are given as the source filed them. Cut-off read from the data, not from the text of the source: active = GI50 up to about 1.1 µM and inactive = higher. A value given as a limit tells only on which side of the number the result lay.

Some test systems named below: ACHN; EKVX; HCT-116; HOP-92; K562; LOX IMVI; NCI-H460; OVCAR-3; OVCAR-4; OVCAR-8; RPMI-8226; SF-539; SK-MEL-28; SK-MEL-5; TK-10; UACC-257; NCI/ADR-RES; PC-3.
Experiment in all cases: inhibition of tumour cell growth, NCI panel, 48 h

In the case of `O=C(CC(=O)C1CCOC1=O)C(=O)Nc1cccc(Cl)c1` (centres undefined), the GI50 in the assay on ACHN, with EKVX, with HCT-116, with HOP-92, in the assay on K562 and in the assay on LOX IMVI was > 100 µM (inactive) in each case. Moreover, the GI50 in the assay on NCI-H460, in the assay on OVCAR-3, in the assay with OVCAR-4, with OVCAR-8, in the assay with RPMI-8226 and in the assay on SF-539 was > 100 µM (inactive) each time. Also, the GI50 in the assay on SK-MEL-28, with SK-MEL-5, in the assay on TK-10 and with UACC-257 was > 100 µM (inactive) each time.

In the case of `Cc1cc(C)[n+](CCOc2ccc(/C(=C(/Cl)c3ccccc3)c3ccccc3)cc2)c(C)c1.[O-][Cl+3]([O-])([O-])[O-]`, the GI50 was 10 µM (inactive) in the assay on ACHN; 0.887 µM (active) in the assay with EKVX; 0.743 µM (active) in the assay on HCT-116; 0.989 µM (active) in the assay with HOP-92; 0.257 µM (active) in the assay on K562; 0.778 µM (active) with LOX IMVI. Besides, the GI50 is 1.25 µM (inactive) in the assay with NCI-H460; 0.659 µM (active) with OVCAR-3; 0.944 µM (active) in the assay with OVCAR-4; 1.33 µM (inactive) in the assay on OVCAR-8; 0.348 µM (active) with RPMI-8226; 1.8 µM (inactive) in the assay with SF-539. Moreover, the GI50 is 1.32 µM (inactive) with SK-MEL-28, 0.455 µM (active) in the assay on SK-MEL-5, 3.52 µM (inactive) with TK-10 and 0.692 µM (active) in the assay on UACC-257.

Take `CC(=O)C(CN(Cc1ccccc1)Cc1ccccc1)C(c1ccccc1)c1c(O)c2ccccc2oc1=O` (centres undefined): the GI50 in the assay with ACHN is > 100 µM (inactive); in the assay with EKVX it was > 100 µM (inactive); with HCT-116, > 100 µM (inactive); in the assay on HOP-92, 18.9 µM (inactive); in the assay on K562, > 100 µM (inactive); in the assay with LOX IMVI, > 100 µM (inactive). Moreover, the GI50 with NCI-H460, in the assay on OVCAR-3, in the assay with OVCAR-4, with OVCAR-8, in the assay on RPMI-8226 and in the assay with SF-539 was > 100 µM (inactive) throughout. Also, the GI50 in the assay with SK-MEL-5, in the assay with TK-10 and in the assay on UACC-257 was > 100 µM (inactive) throughout.

As for `O=C(NC1CCN(Cc2ccccc2)CC1)c1ccccc1I`, the GI50 in the assay on ACHN is 49.3 µM (inactive); in the assay with EKVX, 43.3 µM (inactive); in the assay on HCT-116 it was 16.7 µM (inactive); in the assay on HOP-92 it was 28.7 µM (inactive); with K562, 23.3 µM (inactive); with LOX IMVI, 17.5 µM (inactive). Also, the GI50 with NCI-H460 was 24.7 µM (inactive); in the assay with NCI/ADR-RES, 25.7 µM (inactive); in the assay on OVCAR-3, 43.9 µM (inactive); with OVCAR-4 it was 86.3 µM (inactive); with OVCAR-8 it was 39.8 µM (inactive); with PC-3, 23.6 µM (inactive). The GI50 is 36.3 µM (inactive) with RPMI-8226; 23.2 µM (inactive) in the assay with SF-539; 17.8 µM (inactive) in the assay on SK-MEL-28; 16.9 µM (inactive) with SK-MEL-5; 21.6 µM (inactive) in the assay on TK-10; 18.1 µM (inactive) in the assay with UACC-257.

On to `COC(=O)C(C(=O)C(N)=O)c1csc(-n2nc(-c3ccccc3)cc2-c2ccccc2)n1` (centres undefined), for which the GI50 in the assay on ACHN was > 31.6 µM (inactive); with EKVX, 13.9 µM (inactive); with HCT-116, > 31.6 µM (inactive); in the assay with HOP-92 it was > 67 µM (inactive); in the assay on K562 it was 23.8 µM (inactive); in the assay with LOX IMVI, > 88.1 µM (inactive). Besides, the GI50 in the assay on NCI-H460 was > 31.6 µM (inactive); in the assay with OVCAR-3 it was 43.2 µM (inactive); in the assay on OVCAR-4, > 31.6 µM (inactive); in the assay with OVCAR-8, 30.4 µM (inactive); in the assay on RPMI-8226, > 31.6 µM (inactive); with SF-539 it was > 31.6 µM (inactive). Besides, the GI50 is > 31.6 µM (inactive) in the assay on SK-MEL-28, 28.7 µM (inactive) with SK-MEL-5, 21.5 µM (inactive) in the assay with TK-10 and 19.8 µM (inactive) in the assay with UACC-257.

Regarding `COc1cc2c3c(c1OC)C1(C=CC(=O)C=C1)CC3N(C(=O)OC(C)(C)C(Cl)(Cl)Cl)CC2` (centres undefined), the GI50 with EKVX was 16.8 µM (inactive); in the assay on HCT-116, 6.25 µM (inactive); in the assay with HOP-92 it was 14.4 µM (inactive); in the assay with K562, 4.68 µM (inactive); in the assay with LOX IMVI, 10.1 µM (inactive); in the assay on NCI-H460, 14.5 µM (inactive). Besides, the GI50 in the assay with OVCAR-3 is 7.66 µM (inactive); with OVCAR-4, 12.5 µM (inactive); with OVCAR-8, 8.85 µM (inactive); in the assay with RPMI-8226, 2.23 µM (inactive); in the assay on SF-539, 15.7 µM (inactive); with SK-MEL-5, 6.87 µM (inactive). Moreover, the GI50 is 43.2 µM (inactive) in the assay with TK-10 and 10.4 µM (inactive) in the assay with UACC-257.

As to `CC(=O)OC1COC(N2C(=O)C(=O)c3cc(Br)ccc32)C(OC(C)=O)C1OC(C)=O` (centres undefined), the GI50 in the assay with ACHN, in the assay on EKVX, in the assay with HOP-92, in the assay with K562, in the assay with LOX IMVI and with NCI-H460 was > 100 µM (inactive) in each case. Also, the GI50 in the assay on OVCAR-3, in the assay on OVCAR-4, with OVCAR-8, in the assay with RPMI-8226, with SF-539 and in the assay on SK-MEL-28 was > 100 µM (inactive) in each case. In addition, the GI50 in the assay on SK-MEL-5, in the assay on TK-10 and in the assay with UACC-257 was > 100 µM (inactive) throughout.

For `COc1cc2c(oc(=O)c3cc4ccoc4c(OC)c32)c2cccc(O)c12`, the GI50 in the assay with ACHN, in the assay with EKVX, in the assay with HCT-116, in the assay on HOP-92, with K562 and in the assay with LOX IMVI was > 100 µM (inactive) in each case. Also, the GI50 in the assay with NCI-H460, in the assay on OVCAR-3, with OVCAR-4, in the assay with OVCAR-8, with RPMI-8226 and in the assay with SF-539 was > 100 µM (inactive) throughout. In addition, the GI50 in the assay with SK-MEL-28, with SK-MEL-5, in the assay with TK-10 and in the assay with UACC-257 was > 100 µM (inactive) each time.

As to `COC(=O)C1CCc2c(OC)ccc(OC)c2C1=O` (centres undefined), the GI50 in the assay with ACHN, in the assay on EKVX, with HCT-116, in the assay on HOP-92, in the assay with K562 and with LOX IMVI was > 100 µM (inactive) each time. Moreover, the GI50 in the assay with NCI-H460, with OVCAR-3, with OVCAR-4, in the assay with OVCAR-8, with RPMI-8226 and in the assay on SF-539 was > 100 µM (inactive) in each case. Further, the GI50 with SK-MEL-28, in the assay with SK-MEL-5, in the assay with TK-10 and with UACC-257 was > 100 µM (inactive) each time.

Consider `COc1ccccc1NC(=O)C1=C(C)NC(C)=C(C(=O)Nc2ccccc2OC)C1c1ccccc1OC`, for which the GI50 in the assay on ACHN is 74.5 µM (inactive); with EKVX, > 100 µM (inactive); in the assay on HCT-116 it was 38.9 µM (inactive); in the assay with HOP-92, > 100 µM (inactive); in the assay with K562 it was 60.5 µM (inactive); with LOX IMVI, > 100 µM (inactive). Also, the GI50 in the assay on NCI-H460 was 97.3 µM (inactive); in the assay on OVCAR-3, 80.4 µM (inactive); in the assay on OVCAR-4, 69 µM (inactive); in the assay with OVCAR-8, > 100 µM (inactive); with RPMI-8226, 75.9 µM (inactive); in the assay on SF-539, > 100 µM (inactive). Besides, the GI50 in the assay with SK-MEL-28, with SK-MEL-5, in the assay on TK-10 and in the assay on UACC-257 was > 100 µM (inactive) throughout.

In the case of `O=C(O)C(CS)NCc1c2ccccc2nc2ccccc12` (centres undefined), the GI50 is 42.3 µM (inactive) in the assay on ACHN; 38.5 µM (inactive) in the assay on EKVX; 16.7 µM (inactive) with HCT-116; 25.9 µM (inactive) in the assay on HOP-92; 26.1 µM (inactive) with K562; 30.5 µM (inactive) with LOX IMVI. In addition, the GI50 with NCI-H460 is 42.5 µM (inactive); in the assay with OVCAR-3, 38.9 µM (inactive); in the assay with OVCAR-4, 12.9 µM (inactive); in the assay on OVCAR-8, 32.6 µM (inactive); with RPMI-8226, 22 µM (inactive); in the assay on SF-539 it was 33.9 µM (inactive). Further, the GI50 with SK-MEL-28 was 72.6 µM (inactive); in the assay with TK-10 it was 78.2 µM (inactive); with UACC-257, 57.8 µM (inactive).

For `O=S(=O)(/C=C/c1ccc(F)cc1)Cc1ccc(CS(=O)(=O)/C=C/c2ccc(F)cc2)cc1`, the GI50 with ACHN, in the assay with EKVX, in the assay with HCT-116, in the assay on HOP-92, in the assay on K562 and with LOX IMVI was > 100 µM (inactive) each time. The GI50 in the assay on NCI-H460, in the assay with OVCAR-3, in the assay on OVCAR-4, in the assay with OVCAR-8, in the assay on RPMI-8226 and with SF-539 was > 100 µM (inactive) in each case. For the same compound, the GI50 in the assay on SK-MEL-28, in the assay on SK-MEL-5, in the assay with TK-10 and in the assay with UACC-257 was > 100 µM (inactive) each time.
